Data as given in patent publication US11969428B2, “Methods and pharmaceutical compositions for treating lymphoid malignancy” (priority 2011, dated 2024).

Tests used:
[1] = system: CCRF-CEM xenograft; test: Systemic (intravenous) CCRF-CEM xenograft, survival; format: in vivo, mouse; settings: treatment from 3 days post-injection for 7 days
Experimental: After 3 days, mice were segregated into two treatment groups that received either CAL-130 or vehicle by oral gavage as described above for 7 days. Mice in both groups were then followed until moribund (and euthanized).
In the former, luciferase expressing CCRF-CEM cells were injected into the flanks of immunodeficient mice and allowed to grow for 1 week before administering vehicle control or inhibitor (10 mg kg^−1 every 8 hours) for a total of 4 days. In the latter, treatment commenced 3 days post-injection of tumor cells for a total of 7 days. […] This translated into an increase in median survival time for treated animals with systemic disease of 35 days versus 23 days for mice that received vehicle control alone (FIG. 19D).

[2] = system: CCRF-CEM cells; test: Immunoblots of signaling downstream of PI3K; format: cell-based, human
Experimental: (§1) Cell lysates (from cell lines or thymocytes) were prepared on ice in M-PER Mammalian Protein Extraction reagent (Pierce) containing a cocktail of protease and phosphatase inhibitors (Swat et al., 2006). Equal amounts of total protein from lysates were subjected to SDS-PAGE, transferred to PVDF membrane (Immobilon-P, Millipore), and membranes probed by overnight incubation with appropriate primary antibodies. Bound antibodies were visualized with HRP-conjugated secondary antibodies and ECL chemistry (SuperPico West, Pierce).
The PI3K/Akt signaling pathway can play a major role in cell cycle progression and growth of tumors by regulating the activation state of the downstream targets such as glycogen synthase kinase-3β (GSK3β) and mTOR (Schmelzle and Hall, 2000; Cohen and Frame, 2001). PI3K/Akt mediated phosphorylation suppresses the function of the former and promotes the activity of the latter. Tumor cell survival, on the other hand, is largely mediated by the ability of this pathway to inactivate proapoptotic effectors such as the BH3-only pro-apoptotic protein BAD and to repress the expression of BIM, both of which participate in the mitochondria-dependent cell death pathway (Strasser et al., 2000; Duronio, 2008). Therefore, the ability of CAL-130 treatment to interfere with such events was examined. […] Downstream targets of this protein kinase were also affected as evidenced by the reduction in phosphorylation of GSK3β and mTOR. […] The latter would also explain in part the synergy between CAL-130 and dexamethasone, as BIM expression is required for glucocorticoid-induced apoptosis (Erlacher et al., 2005; Wang et al., 2003).

[3] = system: platelets; test: ADP-induced platelet aggregation; format: cell-based, mouse; settings: platelets from p110γ/δ double knockout mice 2 hours post administration of CAL-130 (10 mg kg−1)
Experimental: Blood was obtained from anesthetized p110δ/γ double knockout mice via cardiac puncture. Platelets were purified from PRP by centrifugation and resuspended to a final concentration of […] in buffer (145 mM NaCl, 10 mM Hepes, 0.5 mM Na2HPO4, 5 mM KCl, 2 mM MgCl2, 1 mM CaCl2, 0.1% glucose, pH 7.4). CAL-130 (1 μM, 2.5 μM, or 5 μM final concentration) or DMSO was added to platelet suspensions 5 minutes prior to inducing aggregation with ADP (25 μM). Mouse fibrinogen (final concentration 200 μg/ml) was also added to the platelet suspensions just prior to activation as previously described (Magallon et al., 2011). Aggregation was assessed using a Chronolog Lumi-Aggregometer (model 540 VS, Chronolog, Havertown, PA). In some experiments, blood was collected 2 hours after administering a single dose of CAL-130 (10 mg kg^−1) or vehicle control and ADP-induced aggregation evaluated.

[4] = Plasma levels of CAL-130; format: in vivo, mouse; settings: 10 mg kg−1 orally, at the end of 8 hours
Experimental: For CAL-130 level determinations, animals received a single oral dose (10 mg kg^−1 or 20 mg kg^−1) of inhibitor. Plasma was collected at 0, 2, 4, 8, and 12 hours and subjected to high-performance liquid chromatography-MS/MS (sensitivity 1 ng/mL). The concentration of CAL-130 in plasma was determined using a standard curve (analyte peak area versus concentration) generated with calibration standard pools. Values represent the mean (±SD) for four animals per group.

[5] = system: Akt/PKB phosphorylation; test: TCR-induced Akt/PKB phosphorylation in thymocytes (Western blot); format: cell-based, mouse; settings: thymocytes from 6 week old wild type animals
Experimental: as §1
To assess the requirement for p110δ in TCR-induced phosphorylation of Akt/PBK, single-cell suspensions of thymocytes (1×10^8/mL) from PI3Kγ-deficient animals were incubated with the p110δ-specific inhibitor IC87114 (10 μM) or with vehicle control (DMSO) for 30 minutes before TCR cross-linking, as described for the Ca^2+ flux assay. Aliquots (100 μL) were collected at 0, 10, 30, and 60 minutes after TCR cross-linking, briefly centrifuged to pellet, and subsequently lysed with ice-cold M-Per (Pierce, Rockford, IL) (according to the manufacturer's recommendations) that contained a cocktail of phosphatase and protease inhibitors (Puri et al., 2005). Lysates were clarified by centrifugation (12,000 g for 15 minutes at 4° C.), and total and phosphorylated Akt/PBK were determined by Western blot analysis.

[6] = Plasma glucose and insulin levels; format: in vivo, mouse; settings: single oral dose 10 mg kg−1
Experimental: Plasma glucose and insulin levels were determined following a single oral dose of CAL-130 (10 mg kg^−1). Blood was collected into K2EDTA tubes by cardiac puncture at baseline and 0, 2, 4, and 8 hours post-dose, and plasma samples frozen at −80° C. until analysis. The insulin and glucose levels were determined by using an Ultra Sensitive Mouse Insulin ELISA Kit (Crystall Chem Inc.) or WaveSense Presto Blood Glucose Monitoring System (Agamatrix Inc., Boston, MA), respectively.

[7] = system: CCRF-CEM cells; test: Cell proliferation and apoptosis (cell counting, Annexin V); format: cell-based, human; settings: CCRF-CEM
Experimental: (§2) Cell proliferation of CCRF-CEM cells or shRNA transfected CCRF-CEM cells, in the presence or absence of appropriate drug, was followed by cell counting of samples in triplicate using a hemocytometer and trypan blue. For apoptosis determinations of untransfected or shRNA transfected CCRF-CEMs, cells were stained with APC-conjugated Annexin-V (BD Biosciences) in Annexin Binding Buffer (Miltyeni Biotec) and analyzed by flow cytometry. For primary T-ALL samples, cell viability was assessed using the BD Cell Viability kit (BD Biosciences) coupled with the use of fluorescent counting beads as previously described (Armstrong et al., 2009). For this, cells were plated with MS5-DL1 stroma cells, and after 72 hours following drug treatment cells were harvested and stained with an APC-conjugated anti-human CD45 followed by a staining with the above kit according to the manufacturer's instructions.

[8] = system: primary human T-ALL tumor cells; test: Primary T-ALL cell viability on MS5-DL1 stroma; format: cell-based; settings: primary T-ALL devoid of PTEN; 72 hours
Experimental: as §2

[9] = within 24 hours, persisted over 4 days

SMILES: Cc1ccccc1-n1c(C(C)Nc2nc(N)nc3nc[nH]c23)nc2cccc(C)c2c1=O (stereo not drawn) [CAL-130]
- median survival time [1]: 35 days
- expression of BIM (including L and S isoforms) [2]: enhanced expression
- phosphorylation of BAD [2]: reduction
- phosphorylation of GSK3β [2]: reduction
- phosphorylation of mTOR [2]: reduction
- Akt (Ser473) phosphorylation ([2]; 2.5 μM, 6 hours): complete abrogation
- ADP-mediated platelet aggregation [3]: no obvious defect
- plasma concentration [4]: 330 ± 180 nM
- TCR induced Akt phosphorylation (Ser473) [5]: prevented
- plasma glucose levels [6]: did not affect
- plasma insulin levels [6]: did not affect
- apoptotic properties of dexamethasone ([7]; dexamethasone in combination with 2.5 μM CAL-130): significantly enhanced
- apoptosis [7, 9]: promoted apoptosis
- proliferation [7, 9]: prevented proliferation
- tumor cell viability [8]: reduction in tumor cell viability
